Assays:
[1] = Cytotoxicity against human WI38 cells after 72 hrs by SRB assay; format: cell-based; conditions: WI-38, 72 h
[2] = system: Bel-7402; assay: Cytotoxicity against human Bel7402 cells after 72 hrs by SRB assay; format: functional, cell-based; conditions: Bel-7402, 72 h
[3] = system: Calu-3; assay: Cytotoxicity against human Calu3 cells after 72 hrs by SRB assay; format: functional, cell-based; conditions: Calu-3, 72 h
[4] = system: SGC-7901; assay: Cytotoxicity against human SGC7901 cells after 72 hrs by SRB assay; format: functional, cell-based; conditions: SGC-7901, 72 h
[5] = system: NCI-H460; assay: Cytotoxicity against human NCI-H460 cells after 72 hrs by SRB assay; format: functional, cell-based; conditions: NCI-H460, 72 h
[6] = system: HT-29; assay: cells; conditions: Homo sapiens, HT-29, 72 h
Description: Cytotoxicity against human HT-29 cells after 72 hrs by SRB assay

[7] = system: SK-BR-3; assay: Cytotoxicity against human SKBR3 cells after 72 hrs by SRB assay; format: functional, cell-based; conditions: SK-BR-3, 72 h

**Q.** With `Cc1ncc(-c2ccc(N)cc2)c(-c2ccccc2O)n1` as the compound, how does the IC50 [1] read?
**A.** Its IC50 is greater than 10 µM.

**Q.** What about the IC50 [2] of the same compound?
**A.** Its IC50 is greater than 10 µM.

**Q.** With `Cc1ncc(-c2ccccc2F)c(-c2ccccc2O)n1` as the compound, how does the IC50 [1] read?
**A.** The IC50 was greater than 10 µM.

**Q.** What about the IC50 [2] of the same compound?
**A.** The IC50 was greater than 10 µM.

**Q.** For `Cc1ncc(-c2ccc(OC(F)(F)F)cc2)c(-c2ccccc2O)n1`, which IC50 [1] is on record?
**A.** The IC50 was greater than 10 µM.

**Q.** And the IC50 [2]?
**A.** The IC50 was greater than 10 µM.

**Q.** Which IC50 [1] does the source give for `Nc1ncc(-c2ccc(OCCCOCc3ccccc3)cc2)c(-c2ccccc2O)n1` here?
**A.** Its IC50 is greater than 10 µM.

**Q.** What about the IC50 [2] of the same compound?
**A.** The IC50 was greater than 10 µM.

**Q.** For `Nc1ncc(-c2ccc(OC(F)(F)F)cc2)c(-c2ccccc2O)n1`, which IC50 [1] is on record?
**A.** Its IC50 is greater than 10 µM.

**Q.** What about the IC50 [2] of the same compound?
**A.** The IC50 was greater than 10 µM.

**Q.** For `Nc1ncc(-c2ccc(O)cc2)c(-c2ccccc2O)n1`, which IC50 [1] is on record?
**A.** Its IC50 is greater than 10 µM.

**Q.** And the IC50 [2]?
**A.** Its IC50 is greater than 10 µM.

**Q.** What does the source list for `COC(=O)c1ncc(-c2ccc(OC)cc2)c(-c2ccccc2O)n1`?
**A.** IC50 [1]: > 10 µM; IC50 [2]: > 10 µM

**Q.** For `CNC(=O)c1ncc(-c2ccc(OC)cc2)c(-c2ccccc2O)n1`, which IC50 [1] is on record?
**A.** Its IC50 is greater than 10 µM.

**Q.** What about the IC50 [2] of the same compound?
**A.** The IC50 was greater than 10 µM.

**Q.** For `Cc1ncc(-c2cccc(C(F)(F)F)c2)c(-c2ccccc2O)n1`, which IC50 [1] is on record?
**A.** The IC50 was greater than 10 µM.

**Q.** What about the IC50 [2] of the same compound?
**A.** The IC50 was greater than 10 µM.

**Q.** Which results are given for `Cc1ncc(-c2ccc(Cl)cc2)c(-c2ccccc2O)n1`?
**A.** IC50 [1]: > 10 µM; IC50 [2]: > 10 µM

**Q.** With `Cc1ncc(-c2ccc(NC(=O)OC(C)(C)C)cc2)c(-c2ccccc2O)n1` as the compound, how does the IC50 [1] read?
**A.** Its IC50 is greater than 10 µM.

**Q.** What about the IC50 [2] of the same compound?
**A.** The IC50 was greater than 10 µM.

**Q.** Which IC50 [1] does the source give for `COc1cc(-c2cnc(C)nc2-c2ccccc2O)cc(OC)c1OC` here?
**A.** The IC50 was greater than 10 µM.

**Q.** And the IC50 [2]?
**A.** The IC50 was greater than 10 µM.

**Q.** For `Nc1ncc(-c2ccccc2F)c(-c2ccccc2O)n1`, which IC50 [1] is on record?
**A.** Its IC50 is greater than 10 µM.

**Q.** What about the IC50 [2] of the same compound?
**A.** The IC50 was greater than 10 µM.

**Q.** With `COc1cc(-c2cnc(N)nc2-c2ccccc2O)cc(OC)c1OC` as the compound, how does the IC50 [1] read?
**A.** The IC50 was greater than 10 µM.

**Q.** And the IC50 [2]?
**A.** Its IC50 is greater than 10 µM.

**Q.** With `Nc1ncc(-c2cccc(C(F)(F)F)c2)c(-c2ccccc2O)n1` as the compound, how does the IC50 [1] read?
**A.** The IC50 was greater than 10 µM.

**Q.** What about the IC50 [2] of the same compound?
**A.** Its IC50 is greater than 10 µM.

**Q.** Which results are given for `Nc1ncc(-c2ccc(OCCN3CCCC3)cc2)c(-c2ccccc2O)n1`?
**A.** IC50 [1]: > 10 µM; IC50 [2]: > 10 µM

**Q.** Which IC50 [1] does the source give for `CC(=O)O[C@@]12CO[C@@H]1C[C@H](O)[C@@]1(C)C(=O)[C@H](O)C3=C(C)[C@@H](OC(=O)[C@H](O)[C@@H](NC(=O)OC(C)(C)C)c4ccccc4)C[C@@](O)([C@@H](OC(=O)c4ccccc4)[C@H]21)C3(C)C` [DOCETAXEL] here?
**A.** Its IC50 is greater than 10 µM.

**Q.** And the IC50 [3]?
**A.** Its IC50 is 0.1 µM.

**Q.** What about the IC50 [4] of the same compound?
**A.** Its IC50 is 0.0084 µM.

**Q.** And the IC50 [5]?
**A.** Its IC50 is 0.0097 µM.

**Q.** Which IC50 [1] does the source give for `COc1cccc2c1C(=O)c1c(O)c3c(c(O)c1C2=O)C[C@@](O)(C(=O)CO)C[C@@H]3O[C@H]1C[C@H](N)[C@H](O)[C@H](C)O1` [DOXORUBICIN] here?
**A.** Its IC50 is greater than 10 µM.

**Q.** What about the IC50 [2] of the same compound?
**A.** The IC50 was 0.021 µM.

**Q.** What about the IC50 [6] of the same compound?
**A.** The IC50 was 0.018 µM.

**Q.** Which results are given for `CS(=O)(=O)CCNCc1ccc(-c2ccc3ncnc(Nc4ccc(OCc5cccc(F)c5)c(Cl)c4)c3c2)o1` [LAPATINIB]?
**A.** IC50 [1]: > 10 µM; IC50 [7]: 0.017 µM
